In PubChem BioAssay (NCI):
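Cultured in 96-well plates, cells were exposed to test compound for 48 hours across five concentrations. GI50 = concentration required for 50% inhibition of growth. TGI: total growth inhibition.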

What was measured:
Experiment in all cases: NCI-60 cell line screen, 48 h; in the data active = GI50 below about 0.43 µM; inactive = the rest
OVCAR-3 ovarian = tested on: OVCAR-3 ovarian
786-0 renal = tested on: 786-0 renal
UACC-62 melanoma = tested on: UACC-62 melanoma
OVCAR-5 ovarian = tested on: OVCAR-5 ovarian
RXF 393 renal = tested on: RXF 393 renal
OVCAR-4 ovarian = tested on: OVCAR-4 ovarian
ACHN renal = tested on: ACHN renal
SF-295 CNS = tested on: SF-295 CNS
TK-10 renal = tested on: TK-10 renal
UO-31 renal = tested on: UO-31 renal
HOP-62 NSCLC = tested on: HOP-62 NSCLC
MDA-MB-231 breast = tested on: MDA-MB-231 breast
NCI-H460 lung = tested on: NCI-H460 lung
IGROV1 ovarian = tested on: IGROV1 ovarian
SF-268 CNS = tested on: SF-268 CNS
SW-620 colon = tested on: SW-620 colon
HCT-116 colon = tested on: HCT-116 colon
HS 578T breast = tested on: HS 578T breast
U251 CNS = tested on: U251 CNS
NCI-H226 lung = tested on: NCI-H226 lung
A549 NSCLC = tested on: A549 NSCLC
SK-MEL-5 melanoma = tested on: SK-MEL-5 melanoma
SF-539 CNS = tested on: SF-539 CNS
SNB-75 CNS = tested on: SNB-75 CNS
HT29 colon = tested on: HT29 colon
SR leukemia = tested on: SR leukemia
LOX IMVI melanoma = tested on: LOX IMVI melanoma
SK-MEL-28 melanoma = tested on: SK-MEL-28 melanoma
T-47D breast = tested on: T-47D breast
EKVX NSCLC = tested on: EKVX NSCLC
HL-60(TB) leukemia = tested on: HL-60(TB) leukemia
MOLT-4 leukemia = tested on: MOLT-4 leukemia
KM12 colon = tested on: KM12 colon
M14 melanoma = tested on: M14 melanoma
DU-145 prostate = tested on: DU-145 prostate
A498 renal = tested on: A498 renal
HCT-15 colon = tested on: HCT-15 colon
NCI-H522 lung = tested on: NCI-H522 lung
MDA-MB-435 = tested on: MDA-MB-435
OVCAR-8 ovarian = tested on: OVCAR-8 ovarian
HOP-92 NSCLC = tested on: HOP-92 NSCLC
SK-MEL-2 melanoma = tested on: SK-MEL-2 melanoma
K-562 leukemia = tested on: K-562 leukemia
CAKI-1 renal = tested on: CAKI-1 renal
COLO 205 colon = tested on: COLO 205 colon
MCF7 breast = tested on: MCF7 breast
UACC-257 melanoma = tested on: UACC-257 melanoma
SNB-19 CNS = tested on: SNB-19 CNS
NCI/ADR-RES ovarian = tested on: NCI/ADR-RES ovarian
RPMI-8226 leukemia = tested on: RPMI-8226 leukemia
PC-3 prostate = tested on: PC-3 prostate
BT-549 breast = tested on: BT-549 breast
CCRF-CEM leukemia = tested on: CCRF-CEM leukemia
SN12C renal = tested on: SN12C renal
HCC-2998 colon = tested on: HCC-2998 colon
SK-OV-3 ovarian = tested on: SK-OV-3 ovarian
MALME-3M melanoma = tested on: MALME-3M melanoma

CCNC(=O)N1CCc2cc(OC)c(OCCc3ccc(OC)cc3)cc2C1c1ccc(OC)cc1C (stereo unspecified)
3160 nM: TGI (SK-MEL-5 melanoma)
> 22200 nM: TGI (A498 renal)
4890 nM: TGI (RPMI-8226 leukemia)
> 53800 nM: TGI (NCI-H226 lung)
active: GI50 (NCI-H460 lung) 288 nM | GI50 (HCT-116 colon) 232 nM | GI50 (SR leukemia) 151 nM | GI50 (LOX IMVI melanoma) 300 nM | GI50 (MOLT-4 leukemia) 314 nM | GI50 (HCT-15 colon) 168 nM | GI50 (K-562 leukemia) 242 nM
> 30000 nM: TGI (NCI/ADR-RES ovarian)
> 31100 nM: TGI (HS 578T breast)
> 37500 nM: TGI (SF-295 CNS)
> 29700 nM: TGI (SK-MEL-2 melanoma)
> 32900 nM: TGI (NCI-H460 lung)
> 100000 nM: TGI (OVCAR-3 ovarian) | TGI (786-0 renal) | TGI (UACC-62 melanoma) | TGI (OVCAR-5 ovarian) | TGI (OVCAR-4 ovarian) | TGI (ACHN renal) | TGI (TK-10 renal) | TGI (UO-31 renal) | TGI (HOP-62 NSCLC) | TGI (MDA-MB-231 breast) | TGI (IGROV1 ovarian) | TGI (SF-268 CNS) | TGI (SW-620 colon) | TGI (HCT-116 colon) | TGI (U251 CNS) | TGI (A549 NSCLC) | TGI (SK-MEL-28 melanoma) | TGI (T-47D breast) | TGI (EKVX NSCLC) | TGI (MOLT-4 leukemia) | TGI (KM12 colon) | TGI (M14 melanoma) | TGI (DU-145 prostate) | TGI (HCT-15 colon) | TGI (OVCAR-8 ovarian) | TGI (HOP-92 NSCLC) | TGI (K-562 leukemia) | TGI (CAKI-1 renal) | TGI (COLO 205 colon) | TGI (MCF7 breast) | TGI (UACC-257 melanoma) | TGI (SNB-19 CNS) | TGI (PC-3 prostate) | TGI (CCRF-CEM leukemia) | TGI (SN12C renal) | TGI (HCC-2998 colon) | TGI (SK-OV-3 ovarian) | TGI (MALME-3M melanoma)
3340 nM: TGI (NCI-H522 lung)
2690 nM: TGI (SR leukemia)
9660 nM: TGI (HT29 colon)
5720 nM: TGI (SF-539 CNS)
inactive: GI50 (OVCAR-3 ovarian) 1960 nM | GI50 (786-0 renal) 715 nM | GI50 (UACC-62 melanoma) 644 nM | GI50 (OVCAR-5 ovarian) 2350 nM | GI50 (RXF 393 renal) 1510 nM | GI50 (OVCAR-4 ovarian) 3730 nM | GI50 (ACHN renal) 755 nM | GI50 (SF-295 CNS) 875 nM | GI50 (TK-10 renal) 5950 nM | GI50 (UO-31 renal) 1450 nM | GI50 (HOP-62 NSCLC) 1590 nM | GI50 (MDA-MB-231 breast) 1040 nM | GI50 (IGROV1 ovarian) 755 nM | GI50 (SF-268 CNS) 1320 nM | GI50 (SW-620 colon) 741 nM | GI50 (HS 578T breast) 1660 nM | GI50 (U251 CNS) 557 nM | GI50 (NCI-H226 lung) 2720 nM | GI50 (A549 NSCLC) 1390 nM | GI50 (SK-MEL-5 melanoma) 741 nM | GI50 (SF-539 CNS) 572 nM | GI50 (SNB-75 CNS) 893 nM | GI50 (HT29 colon) 694 nM | GI50 (SK-MEL-28 melanoma) 1410 nM | GI50 (T-47D breast) 2960 nM | GI50 (EKVX NSCLC) 5640 nM | GI50 (HL-60(TB) leukemia) 583 nM | GI50 (KM12 colon) 1120 nM | GI50 (M14 melanoma) 1240 nM | GI50 (DU-145 prostate) 1330 nM | GI50 (NCI-H522 lung) 698 nM | GI50 (MDA-MB-435) 770 nM | GI50 (OVCAR-8 ovarian) 821 nM | GI50 (HOP-92 NSCLC) 3910 nM | GI50 (SK-MEL-2 melanoma) 3800 nM | GI50 (CAKI-1 renal) 1150 nM | GI50 (COLO 205 colon) 1070 nM | GI50 (MCF7 breast) 528 nM | GI50 (UACC-257 melanoma) 6660 nM | GI50 (SNB-19 CNS) 1160 nM | GI50 (NCI/ADR-RES ovarian) 871 nM | GI50 (RPMI-8226 leukemia) 486 nM | GI50 (PC-3 prostate) 489 nM | GI50 (BT-549 breast) 1360 nM | GI50 (CCRF-CEM leukemia) 432 nM | GI50 (SN12C renal) 1530 nM | GI50 (HCC-2998 colon) 1950 nM | GI50 (SK-OV-3 ovarian) 5440 nM | GI50 (MALME-3M melanoma) 12200 nM
> 27200 nM: TGI (SNB-75 CNS)
7230 nM: TGI (MDA-MB-435)
4190 nM: TGI (RXF 393 renal)
5230 nM: TGI (HL-60(TB) leukemia)
